# Values quoted from earlier work in article PMC11020070, “Discovery of Protease-Activated Receptor 4 (PAR4)-Tethered Ligand Antagonists Using Ultralarge Virtual Screening” (ACS Pharmacology & Translational Science, 2024).
# Tests used:
# PAR4 [1] = test system: PAR4; design: method as in PMID 28053157; settings: cited from earlier work
# [2] = design: method as in PMID 35758258, PMID 23222541; settings: phase I, healthy participants; cited from earlier work
# PAR4 [3] = test system: PAR4; design: method as in PMID 27777004; settings: read-out: IC50 against γ-thrombin; cited from earlier work
# PAR1 = molecular target: T1, PAR1 (Homo sapiens, UniProt P25116); design: method as in PMID 22443427, PMID 22077816; settings: cited from earlier work
# T1 construct: endogenous in cells; host or cells: platelets
# T1 sequence (P25116 22-425): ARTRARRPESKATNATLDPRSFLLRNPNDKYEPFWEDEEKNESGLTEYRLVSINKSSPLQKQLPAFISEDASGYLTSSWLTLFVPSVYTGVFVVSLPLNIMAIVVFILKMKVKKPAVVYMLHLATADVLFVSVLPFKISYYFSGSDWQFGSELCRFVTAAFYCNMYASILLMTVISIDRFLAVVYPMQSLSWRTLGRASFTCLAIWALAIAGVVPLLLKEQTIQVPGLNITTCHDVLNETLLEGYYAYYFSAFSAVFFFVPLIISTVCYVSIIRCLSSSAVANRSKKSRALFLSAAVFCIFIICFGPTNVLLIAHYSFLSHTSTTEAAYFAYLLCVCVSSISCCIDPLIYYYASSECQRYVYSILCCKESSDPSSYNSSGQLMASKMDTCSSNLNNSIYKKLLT
smiles,measurement,setting,value
COc1cc(OCc2nc(N3CCOCC3)sc2C)c2cc(-c3cn4nc(OC)sc4n3)oc2c1 [BMS-986120],antithrombotic activity,PAR4 [1]; cynomolgus monkey arterial thrombosis model,potent and highly efficacious antithrombotic activity
same,bleeding liability,PAR4 [1]; nonhuman primate model,low bleeding liability
same,safety and tolerability,[2],safe and well tolerated
COc1nn2cc(-c3c(CO)n(Cc4ccccc4Cl)c4ccc(OC(F)(F)F)cc34)nc2s1 [Compound 6],IC50,PAR4 [3],4.35 µM
CCOC(=O)N[C@@H]1CC[C@@H]2[C@@H](C1)C[C@H]1C(=O)O[C@H](C)[C@H]1[C@H]2/C=C/c1ccc(-c2cccc(F)c2)cn1 [vorapaxar],primary efficacy outcome,"PAR1; added to standard care, acute coronary syndrome, phase 3",failed to meet its primary efficacy outcome
same,bleeding,"PAR1; phase 3, especially intracranial hemorrhage",excess of major bleeding
